From paper PMC9963398, “Discovery of New Quinolone-Based Diarylamides as Potent B-RAF^V600E/C-RAF Kinase Inhibitors Endowed with Promising In Vitro Anticancer Activity” (International Journal of Molecular Sciences, 2023)
Like-named read-outs stand apart in the source and are kept apart here.

Columns and labels:
B-RAF^V600E [1] = molecular target: T1, B-RAF^V600E (Homo sapiens, UniProt P15056, V600E); assay: HotSpot kinase assay (RBC), B-RAF^V600E; assay type: biochemical; settings: 10 µM ATP, 10-dose singlicate IC50 mode
T1 construct: purchased Reaction Biology Corporation (RBC), Kinase HotSpot service

C-RAF [2] = molecular target: T2, C-RAF (Homo sapiens, UniProt P04049); assay: HotSpot kinase assay (RBC), C-RAF; settings: IC50 C-RAF, 10 µM ATP, 10-dose singlicate IC50 mode
Description: Reaction Biology Corporation (RBC) Kinase HotSpotSM service was utilized for cell-free biochemical kinase evaluation of the target compounds according to the reported assay protocol [46].

EGFR = test system: EGFR; set-up: method as in PMID 24588073; settings: cited from earlier work
RAF = test system: RAF; set-up: method as in PMID 28368067; settings: cited from earlier work
B-RAF = test system: B-RAF; set-up: method as in PMID 25461318; settings: cited from earlier work
C-RAF [3] = molecular target: T2, C-RAF; settings: at 10 µM; cited from earlier work
B-RAF^V600E [4] = molecular target: T1, B-RAF^V600E; settings: cited from earlier work
Src = test system: Src; set-up: method as in PMID 25835317; settings: cited from earlier work
B-RAF^WT = test system: B-RAF^WT; set-up: method as in PMID 25835317; settings: cited from earlier work
B-RAF^V600E [5] = molecular target: T1, B-RAF^V600E; set-up: method as in PMID 24900673, PMID 33780623; settings: cited from earlier work

T1 sequence (P15056 whole entry V600E): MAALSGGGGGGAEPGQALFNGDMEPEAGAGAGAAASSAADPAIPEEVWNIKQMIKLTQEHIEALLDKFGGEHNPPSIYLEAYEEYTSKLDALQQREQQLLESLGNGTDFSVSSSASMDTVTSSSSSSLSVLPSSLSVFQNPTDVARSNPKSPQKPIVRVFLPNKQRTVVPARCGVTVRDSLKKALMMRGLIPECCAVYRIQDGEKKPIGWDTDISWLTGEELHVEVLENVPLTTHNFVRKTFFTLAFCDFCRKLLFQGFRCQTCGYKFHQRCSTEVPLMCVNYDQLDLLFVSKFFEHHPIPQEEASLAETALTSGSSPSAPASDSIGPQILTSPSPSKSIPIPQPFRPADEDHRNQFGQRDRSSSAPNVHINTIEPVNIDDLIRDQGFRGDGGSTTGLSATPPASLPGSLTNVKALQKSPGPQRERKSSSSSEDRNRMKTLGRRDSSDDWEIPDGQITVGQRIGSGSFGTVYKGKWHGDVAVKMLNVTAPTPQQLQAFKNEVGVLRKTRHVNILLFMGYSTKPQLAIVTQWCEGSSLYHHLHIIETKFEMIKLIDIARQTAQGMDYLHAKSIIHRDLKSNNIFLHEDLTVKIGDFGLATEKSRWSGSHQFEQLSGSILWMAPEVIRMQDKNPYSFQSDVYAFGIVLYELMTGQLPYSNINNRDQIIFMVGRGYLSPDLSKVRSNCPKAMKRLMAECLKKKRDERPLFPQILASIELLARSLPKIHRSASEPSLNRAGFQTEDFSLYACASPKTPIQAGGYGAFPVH
T2 sequence (P04049 whole entry): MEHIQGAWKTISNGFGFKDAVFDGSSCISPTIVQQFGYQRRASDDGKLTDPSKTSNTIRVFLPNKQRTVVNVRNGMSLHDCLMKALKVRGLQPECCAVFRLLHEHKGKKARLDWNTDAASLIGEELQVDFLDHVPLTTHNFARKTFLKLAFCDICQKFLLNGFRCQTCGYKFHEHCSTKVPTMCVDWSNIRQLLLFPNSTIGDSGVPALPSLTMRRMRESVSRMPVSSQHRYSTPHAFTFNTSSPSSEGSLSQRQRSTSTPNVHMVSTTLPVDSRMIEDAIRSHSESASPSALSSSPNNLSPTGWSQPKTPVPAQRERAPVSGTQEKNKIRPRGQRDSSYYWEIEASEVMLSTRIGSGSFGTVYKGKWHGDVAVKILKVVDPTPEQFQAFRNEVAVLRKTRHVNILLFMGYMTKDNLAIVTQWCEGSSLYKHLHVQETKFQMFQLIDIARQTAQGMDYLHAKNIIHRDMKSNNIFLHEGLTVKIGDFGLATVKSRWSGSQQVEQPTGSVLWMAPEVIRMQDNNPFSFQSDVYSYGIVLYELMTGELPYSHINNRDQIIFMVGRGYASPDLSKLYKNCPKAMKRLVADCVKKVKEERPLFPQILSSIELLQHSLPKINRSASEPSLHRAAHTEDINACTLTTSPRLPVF

COc1ccc2nc(Nc3cccc(NC(=O)c4ccc(CN5CCCN(C)CC5)c(C(F)(F)F)c4)c3)ccc2c1 [Compound 16b, N-(3-((6-methoxyquinolin-2-yl)amino)phenyl)-4-((4-methyl-1,4-diazepan-1-yl)methyl)-3-(trifluoromethyl)benzamide]
IC50 (B-RAF^V600E [1]): 308 ± 14.9 nM
IC50 (C-RAF [2]): 164 ± 6.05 nM

Cc1ccc(C(=O)Nc2ccc(CN3CCN(C)CC3)c(C(F)(F)F)c2)cc1NC(=O)c1cnc2[nH]ccc2c1 [Compound IV]
IC50 (EGFR): 8 nM

Cc1ccc(C(=O)Nc2ccc(Cl)c(C(F)(F)F)c2)cc1NC(=O)C1(c2ccnc(NCCN3CCN(C)CC3)n2)CC1 [III]
IC50 values, pan-RAF (RAF): two digits nanomolar

O=C(Nc1ccc(Cl)c(C(F)(F)F)c1)c1ccc(Cl)c(C(=O)Nc2ccc(-c3ncc[nH]3)nc2)c1 [II]
IC50 (B-RAF): 531 nM

COc1cc2cc(Oc3ccc(NC(=O)c4cc(C(F)(F)F)cc(C(F)(F)F)c4)cc3)c(C)nc2cc1OC [VI]
inhibition of C-RAF (C-RAF [3]): 77%

CCn1nc(C#Cc2cc(C(=O)Nc3ccc(CN4CCN(C)CC4)c(C(F)(F)F)c3)ccc2C)c2c(N)ncnc21 [V]
IC50 (B-RAF^V600E [4]): 92 nM
IC50 (Src): 0.9 nM
IC50 (B-RAF^WT): 15 nM

CC(C)(C)c1nc(-c2cccc(NS(=O)(=O)c3c(F)cccc3F)c2F)c(-c2ccnc(N)n2)s1 [dabrafenib]
selectivity against B-RAF^V600E than its wild type (B-RAF^V600E [5]): 500 fold

CCCS(=O)(=O)Nc1ccc(F)c(C(=O)c2c[nH]c3ncc(-c4ccc(Cl)cc4)cc23)c1F [vemurafenib]
selectivity against B-RAF^V600E than its wild type (B-RAF^V600E [5]): 100 fold
